Experimental findings from article PMC8347172, “Optimization and Validation of an In Vitro Standardized Glycogen Phosphorylase Activity Assay” (Molecules, 2021) are described below.

For data set [1], the target named is T1, rabbit muscle glycogen phosphorylase a (GPa) (Oryctolagus cuniculus, UniProt P00489).
T1 construct: gene PYGM
T1 sequence (P00489 2-843): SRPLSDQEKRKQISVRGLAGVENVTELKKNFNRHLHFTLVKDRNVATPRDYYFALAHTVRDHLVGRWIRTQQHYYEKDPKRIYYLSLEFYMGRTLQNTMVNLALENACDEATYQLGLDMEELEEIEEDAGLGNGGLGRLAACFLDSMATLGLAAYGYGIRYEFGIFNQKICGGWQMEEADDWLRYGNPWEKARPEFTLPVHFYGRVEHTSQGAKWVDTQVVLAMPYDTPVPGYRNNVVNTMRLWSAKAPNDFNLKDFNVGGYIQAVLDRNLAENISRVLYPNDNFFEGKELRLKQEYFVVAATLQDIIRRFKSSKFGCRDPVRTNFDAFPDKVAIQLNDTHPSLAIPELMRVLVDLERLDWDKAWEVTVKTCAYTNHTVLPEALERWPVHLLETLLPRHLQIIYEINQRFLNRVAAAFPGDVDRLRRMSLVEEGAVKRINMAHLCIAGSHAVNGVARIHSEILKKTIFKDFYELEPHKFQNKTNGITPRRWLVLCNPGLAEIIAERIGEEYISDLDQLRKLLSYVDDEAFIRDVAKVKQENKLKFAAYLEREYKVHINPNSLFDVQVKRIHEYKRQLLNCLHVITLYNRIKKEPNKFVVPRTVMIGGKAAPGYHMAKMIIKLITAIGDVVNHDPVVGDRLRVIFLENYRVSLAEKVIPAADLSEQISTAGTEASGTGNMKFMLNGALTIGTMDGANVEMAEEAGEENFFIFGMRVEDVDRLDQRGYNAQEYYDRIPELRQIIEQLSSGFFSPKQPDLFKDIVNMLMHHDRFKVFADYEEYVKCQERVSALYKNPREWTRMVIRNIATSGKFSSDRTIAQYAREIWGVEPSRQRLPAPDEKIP
Put plainly: colorimetric phosphate release assay (BIOMOL Green), glycogen synthesis direction, […] °C, no glucose. The format is biochemical.

Data set [2] has as its target T1, rabbit muscle glycogen phosphorylase a (GPa). Put plainly: colorimetric phosphate release assay (BIOMOL Green); percent inhibition at […], […] °C. The format is biochemical.
Substrate in the data set “purified protein”: O=P(O)(O)O[C@H]1O[C@H](CO)[C@@H](O)[C@H](O)[C@H]1O
Nature of the data set: purified protein.

For `CN(C)C(=O)[C@H](O)[C@H](Cc1ccccc1)NC(=O)c1cc2cc(Cl)ccc2[nH]1` [CP-91149, 5-chloro-N-[(1S,2R)-3-(dimethylamino)-2-hydroxy-3-oxo-1-(phenylmethyl)propyl]-1H-indole-2-carboxamide], the half-maximal inhibitory concentration (IC50) in data set [1] was 580 ± 90 nM.
In the case of `O=c1oc2c(O)c(O)cc3c(=O)oc4c(O)c(O)cc1c4c23` [ellagic acid], in data set [2], the “% inhibition at 100 μM” value was determined as 40.6 ± 4.5.

B1: rabbit muscle glycogen phosphorylase a (GPa) (Oryctolagus cuniculus) (protein)
chain: SRPLSDQEKRKQISVRGLAGVENVTELKKNFNRHLHFTLVKDRNVATPRDYYFALAHTVRDHLVGRWIRTQQHYYEKDPKRIYYLSLEFYMGRTLQNTMVNLALENACDEATYQLGLDMEELEEIEEDAGLGNGGLGRLAACFLDSMATLGLAAYGYGIRYEFGIFNQKICGGWQMEEADDWLRYGNPWEKARPEFTLPVHFYGRVEHTSQGAKWVDTQVVLAMPYDTPVPGYRNNVVNTMRLWSAKAPNDFNLKDFNVGGYIQAVLDRNLAENISRVLYPNDNFFEGKELRLKQEYFVVAATLQDIIRRFKSSKFGCRDPVRTNFDAFPDKVAIQLNDTHPSLAIPELMRVLVDLERLDWDKAWEVTVKTCAYTNHTVLPEALERWPVHLLETLLPRHLQIIYEINQRFLNRVAAAFPGDVDRLRRMSLVEEGAVKRINMAHLCIAGSHAVNGVARIHSEILKKTIFKDFYELEPHKFQNKTNGITPRRWLVLCNPGLAEIIAERIGEEYISDLDQLRKLLSYVDDEAFIRDVAKVKQENKLKFAAYLEREYKVHINPNSLFDVQVKRIHEYKRQLLNCLHVITLYNRIKKEPNKFVVPRTVMIGGKAAPGYHMAKMIIKLITAIGDVVNHDPVVGDRLRVIFLENYRVSLAEKVIPAADLSEQISTAGTEASGTGNMKFMLNGALTIGTMDGANVEMAEEAGEENFFIFGMRVEDVDRLDQRGYNAQEYYDRIPELRQIIEQLSSGFFSPKQPDLFKDIVNMLMHHDRFKVFADYEEYVKCQERVSALYKNPREWTRMVIRNIATSGKFSSDRTIAQYAREIWGVEPSRQRLPAPDEKIP
Regarding B1, the Km in “purified protein” was determined as 150 ± 30 µM.

One may read the IC50 as the concentration at which inhibition is half-maximal. In general, Km refers to the substrate concentration at which the rate is half of its maximum.
